In US10961238B2, “Modulators of hedgehog (Hh) signaling pathway” (E-THERAPEUTICS PLC, priority 2016, dated 2021):
Where two headings read alike, the source gives them in different places.

Tested on: C3H10T1/2 cells
Assay: C3H assay: differentiation of C3H10T1/2 cells by mSHH, measurement of alkaline phosphatase
Type: cell-based, mouse
Settings: Mus musculus, read-out: IC50 Ranges
[1] = C3H 10T1/2, C3H10T1/2 cells stimulated with mSHH for 72 hours, alkaline phosphatase activity

Compound `Cc1noc(C)c1CCN1CC(S(=O)(=O)N2CCC(c3c[nH]c4ncccc34)CC2)C1` [Compound 56, 3,5-Dimethyl-4-[2-[3-[[4-(1H-pyrrolo[2,3-b]pyridin-3-yl)-1-piperidyl]sulfonyl]azetidin-1-yl]ethyl]isoxazole] has an IC50 [1] of 0.01 to 0.1 µM.
In the case of `O=C(NC1(C(F)(F)F)CC1)N1CC(S(=O)(=O)N2CCC(c3c[nH]c4ncccc34)CC2)C1` [Compound 57, 3-[[4-(1H-Pyrrolo[2,3-b]pyridin-3-yl)-1-piperidyl]sulfonyl]-N-[1-(trifluoromethyl)cyclopropyl]azetidine-1-carboxamide], the IC50 [1] is reported as < 0.01 µM.
For `O=C(OCCCN1CCCCC1)N1CC(S(=O)(=O)N2CCC(c3c[nH]c4ncccc34)CC2)C1` [Compound 58, 3-piperidin-1-ylpropyl 3-[4-(1H-pyrrolo[2,3-b]pyridin-3-yl)piperidin-1-yl]sulfonylaze-tidine-1-carboxylate], the IC50 [1] was 0.1 to 1 µM.
In the case of `O=C(OCCN1CCCCC1)N1CC(S(=O)(=O)N2CCC(c3c[nH]c4ncccc34)CC2)C1` [Compound 59, 2-piperidin-1-ylethyl 3-[4-(1H-pyrrolo [2,3-b]pyridin-3-yl)piperidin-1-yl]sulfonylaze-tidine-1-carboxylate], the IC50 [1] is reported as 0.01 to 0.1 µM.
`O=C(OCCC1CCOCC1)N1CC(S(=O)(=O)N2CCC(c3c[nH]c4ncccc34)CC2)C1` [Compound 60, 2-Tetrahydropyran-4-ylethyl 3-[[4-(1H-pyrrolo[2,3-b]pyridin-3-yl)-1-piperidyl]sulfonyl]azetidine-1-carboxylate] gave an IC50 (C3H 10T1/2, 72 h) of 0.01 to 0.1 µM.
`Cc1noc(C)c1CN1CC(S(=O)(=O)N2CCC(c3c[nH]c4ncccc34)CC2)C1` [Compound 61, 3,5-dimethyl-4-[[3-[4-(1H-pyrrolo [2,3-b]pyridin-3-yl)piperidin-1-yl]sulfonylaze-tidin-1-yl]methyl]-1,2-oxazole] was tested, and the IC50 [1] was 1 to 10 µM.
With `Cc1noc(C)c1COC(=O)N1CC(S(=O)(=O)N2CCC(c3c[nH]c4ncccc34)CC2)C1` [Compound 62, (3,5-Dimethylisoxazol-4-yl)methyl 3-[[4-(1H-pyrrolo[2,3-b]pyridin-3-yl)-1-piperidyl]sulfonyl]azetidine-1-carboxylate] the IC50 [1] was 0.01 to 0.1 µM.
Compound `Cc1noc(C)c1CC(=O)N1CC(S(=O)(=O)N2CCC(c3c[nH]c4ncccc34)CC2)C1` [Compound 63, 2-(3,5-dimethyl-1,2-oxazol-4-yl)-1-[3-[4-(1H-pyrrolo[2,3-b]pyridin-3-yl)piperidin-1-yl]sulfonylaze-tidin-1-yl]ethanone] has an IC50 [1] of 0.01 to 0.1 µM.
`CC1(C)CCCC(C)(C)N1C(=O)N1CC(S(=O)(=O)N2CCC(c3c[nH]c4ncccc34)CC2)C1` [Compound 64, [3-[4-(1H-pyrrolo[2,3-b]pyridin-3-yl)piperidin-1-yl]sulfonylaze-tidin-1-yl]-(2,2,6,6-tetramethylpiperidin-1-yl)methanone] gave an IC50 [1] of 0.01 to 0.1 µM.
`COCCOC(=O)N1CC(S(=O)(=O)N2CCC(c3c[nH]c4ncccc34)CC2)C1` [Compound 65, 2-methoxyethyl 3-[4-(1H-pyrrolo[2,3-b]pyridin-3-yl)piperidin-1-yl]sulfonylaze-tidine-1-carboxylate] was tested, and the IC50 [1] was 0.1 to 1 µM.
With `CC(C)(C)COC(=O)N1CC(S(=O)(=O)N2CCC(c3c[nH]c4ncccc34)CC2)C1` [Compound 66, 2,2-dimethylpropyl 3-[4-(1H-pyrrolo[2,3-b]pyridin-3-yl)piperidin-1-yl]sulfonylaze-tidine-1-carboxylate] the IC50 [1] was 0.01 to 0.1 µM.
With `O=S(=O)(C1CN(Cc2cccs2)C1)N1CCC(c2c[nH]c3ncccc23)CC1` [Compound 68, 3-[1-[1-(thiophen-2-ylmethyl)azetidin-3-yl]sulfonylpiper-idin-4-yl]-1H-pyrrolo[2,3-b]pyridine] the IC50 [1] was 0.1 to 1 µM.
`O=S(=O)(C1CN(Cc2ccc[nH]2)C1)N1CCC(c2c[nH]c3ncccc23)CC1` [Compound 69, 3-[1-[1-(1H-pyrrol-2-ylmethyl)azetidin-3-yl]sulfonylpiper-idin-4-yl]-1H-pyrrolo[2,3-b]pyridine] gave an IC50 [1] of 0.1 to 1 µM.
Work on `O=S(=O)(C1CN(Cc2ccco2)C1)N1CCC(c2c[nH]c3ncccc23)CC1` [Compound 70, 3-[1-[1-(furan-2-ylmethyl)azetidin-3-yl]sulfonylpiper-idin-4-yl]-1H-pyrrolo[2,3-b]pyridine] yielded an IC50 [1] of 0.1 to 1 µM.
Work on `O=S(=O)(C1CN(c2ccncc2)C1)N1CCC(c2c[nH]c3ncccc23)CC1` [Compound 71, 3-[1-(1-pyridin-4-ylazetidin-3-yl)-sulfonylpiper-idin-4-yl]-1H-pyrrolo[2,3-b]pyridine] yielded an IC50 [1] of 1 to 10 µM.
With `O=C(c1ccncc1)N1CC(S(=O)(=O)N2CCC(c3c[nH]c4ncccc34)CC2)C1` [Compound 72, pyridin-4-yl-[3-[4-(1H-pyrrolo[2,3-b]pyridin-3-yl)piperidin-1-yl]sulfonylaze-tidin-1-yl]methanone] the IC50 [1] was 1 to 10 µM.
Compound `CC(C)(C)C(=O)N1CC(S(=O)(=O)N2CCC(c3c[nH]c4ncccc34)CC2)C1` [Compound 73, 2,2-dimethyl-1-[3-[4-(1H-pyrrolo[2,3-b]pyridin-3-yl)piperidin-1-yl]sulfonylaze-tidin-1-yl]propan-1-one] has an IC50 [1] of 0.1 to 1 µM.
In the case of `CC(C)(C)c1ccc(C(=O)N2CC(S(=O)(=O)N3CCC(c4c[nH]c5ncccc45)CC3)C2)cc1` [Compound 74, (4-tert-butylphenyl)-[3-[4-(1H-pyrrolo[2,3-b]pyridin-3-yl)piperidin-1-yl]sulfonylaze-tidin-1-yl]methanone], the IC50 [1] is reported as 1 to 10 µM.
With `O=C(OCc1ccccc1)N1CC(S(=O)(=O)N2CCC(c3c[nH]c4ncccc34)CC2)C1` [Compound 76, benzyl 3-[4-(1H-pyrrolo[2,3-b]pyridin-3-yl)piperidin-1-yl]sulfonylaze-tidine-1-carboxylate] the IC50 [1] was 0.01 to 0.1 µM.
Work on `O=C(Oc1ccc(F)cc1)N1CC(S(=O)(=O)N2CCC(c3c[nH]c4ncccc34)CC2)C1` [Compound 77, (4-fluorophenyl) 3-[4-(1H-pyrrolo[2,3-b]pyridin-3-yl)piperidin-1-yl]sulfonylaze-tidine-1-carboxylate] yielded an IC50 [1] of 0.01 to 0.1 µM.
`O=C(NCc1cocn1)N1CC(S(=O)(=O)N2CCC(c3c[nH]c4ncccc34)CC2)C1` [Compound 78, N-(1,3-oxazol-4-ylmethyl)-3-[4-(1H-pyrrolo[2,3-b]pyridin-3-yl)piperidin-1-yl]sulfonylaze-tidine-1-carboxamide] gave an IC50 [1] of 0.1 to 1 µM.
`O=C(N1CC(S(=O)(=O)N2CCC(c3c[nH]c4ncccc34)CC2)C1)n1ccnc1` [Compound 79, imidazol-1-yl-[3-[4-(1H-pyrrolo[2,3-b]pyridin-3-yl)piperidin-1-yl]sulfonylaze-tidin-1-yl]methanone] showed an IC50 [1] of 1 to 10 µM.
`O=C(NCc1cncs1)N1CC(S(=O)(=O)N2CCC(c3c[nH]c4ncccc34)CC2)C1` [Compound 80, 3-[4-(1H-pyrrolo[2,3-b]pyridin-3-yl)piperidin-1-yl]sulfonyl-N-(1,3-thiazol-5-ylmethyl)azetidine-1-carboxamide] was tested, and the IC50 [1] was 0.1 to 1 µM.
Compound `Cn1ccc(CNC(=O)N2CC(S(=O)(=O)N3CCC(c4c[nH]c5ncccc45)CC3)C2)n1` [Compound 81, N-[(1-Methylpyrazol-3-yl)methyl]-3-[[4-(1H-pyrrolo[2,3-b]pyridin-3-yl)-1-piperidyl]sulfonyl]azetidine-1-carboxamide] has an IC50 [1] of 0.1 to 1 µM.
`CCN(CC)C(=O)N1CC(S(=O)(=O)N2CCC(c3c[nH]c4ncccc34)CC2)C1` [Compound 82, N,N-diethyl-3-[4-(1H-pyrrolo[2,3-b]pyridin-3-yl)piperidin-1-yl]sulfonylaze-tidine-1-carboxamide] was tested, and the IC50 [1] was 0.1 to 1 µM.
For `O=C(OCc1ccco1)N1CC(S(=O)(=O)N2CCC(c3c[nH]c4ncccc34)CC2)C1` [Compound 83, furan-2-ylmethyl 3-[4-(1H-pyrrolo[2,3-b]pyridin-3-yl)piperidin-1-yl]sulfonylaze-tidine-1-carboxylate], the IC50 [1] was 1 to 10 µM.
In the case of `O=C(NCc1cccs1)N1CC(S(=O)(=O)N2CCC(c3c[nH]c4ncccc34)CC2)C1` [Compound 85, 3-[4-(1H-pyrrolo[2,3-b]pyridin-3-yl)piperidin-1-yl]sulfonyl-N-(thiophen-2-ylmethyl)azetidine-1-carboxamide], the IC50 [1] is reported as 0.01 to 0.1 µM.
`O=C(N1CCCCC1)N1CC(S(=O)(=O)N2CCC(c3c[nH]c4ncccc34)CC2)C1` [Compound 86, piperidin-l-yl-[3-[4-(1H-pyrrolo[2,3-b]pyridin-3-yl)piperidin-1-yl]sulfonylaze-tidin-1-yl]methanone] was tested, and the IC50 [1] was 0.1 to 1 µM.
With `O=C(N1CCCC1)N1CC(S(=O)(=O)N2CCC(c3c[nH]c4ncccc34)CC2)C1` [Compound 87, pyrrolidin-1-yl-[3-[4-(1H-pyrrolo[2,3-b]pyridin-3-yl)piperidin-1-yl]sulfonylaze-tidin-1-yl]methanone] the IC50 [1] was 0.1 to 1 µM.
Compound `CC(C)N1CC(S(=O)(=O)N2CCC(c3c[nH]c4ncccc34)CC2)C1` [Compound 89, 3-[1-(1-propan-2-ylazetidin-3-yl)sulfonylpiper-idin-4-yl]-1H-pyrrolo[2,3-b]pyridine] has an IC50 [1] of 1 to 10 µM.
For `CN(C)S(=O)(=O)N1CC(S(=O)(=O)N2CCC(c3c[nH]c4ncccc34)CC2)C1` [Compound 90, N,N-dimethyl-3-[4-(1H-pyrrolo[2,3-b]pyridin-3-yl)piperidin-1-yl]sulfonylaze-tidine-1-sulfonamide], the IC50 [1] was 0.1 to 1 µM.
`CS(=O)(=O)N1CC(S(=O)(=O)N2CCC(c3c[nH]c4ncccc34)CC2)C1` [Compound 91, 3-[1-(1-Methylsulfonylazetidin-3-yl)sulfonyl-4-piperidyl]-1H-pyrrolo[2,3-b]pyridine] was tested, and the IC50 [1] was 0.1 to 1 µM.
With `CN(C)S(=O)(=O)n1cc(C2CCN(S(=O)(=O)C3CN(C(=O)OC(C)(C)C)C3)CC2)c2cccnc21` [Compound 92, tert-butyl 3-[4-[1-(dimethylsulfamoyl)pyrrolo[2,3-b]pyridin-3-yl]piperidin-1-yl]sulfonylaze-tidine-1-carboxylate] the IC50 [1] was 1 to 10 µM.
In the case of `CC(C)(C)OC(=O)N1CC(S(=O)(=O)N2CCC(c3cn(S(C)(=O)=O)c4ncccc34)CC2)C1` [Compound 93, tert-Butyl 3-[[4-(1-methylsulfonylpyrrolo[2,3-b]pyridin-3-yl)-1-piperidyl]sulfonyl]azetidine-1-carboxylate], the IC50 [1] is reported as 1 to 10 µM.
Work on `Cn1cc(C2CCN(S(=O)(=O)C3CN(C(=O)OC(C)(C)C)C3)CC2)c2cccnc21` [Compound 94, tert-Butyl 3-[[4-(1-methylpyrrolo[2,3-b]pyridin-3-yl)-1-piperidyl]sulfonyl]azetidine-1-carboxylate] yielded an IC50 [1] of 0.1 to 1 µM.
